Measurements: patent publication US20100041642A1, “UREA INHIBITORS OF MAP KINASES” (LOCUS PHARMACEUTICALS, INC., priority 2008, published 2010)
pIC50: −log10 of the molar value.

The compounds below were run against p38 (Homo sapiens, UniProt Q16539) (assay: Protein Kinase Assay (33P incorporation from γ-[33P]ATP into GST-ATF-2)). Details: 2 nM p38, preincubated 20 min at 30° C.; 10 uM cold ATP, 2 uM GST-ATF2, 70 min; read-out: ACT. (Activity), IC50 category in Protein Kinase Assay.
Format: biochemical
Outline: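 Compounds preincubated 20 min at 30 °C with 2 nM p38; reaction started with 2 uM GST-ATF-2 (aa 19-96) and 10 uM ATP plus γ-[33P]ATP, pH 7.5, 70 min at 30 °C, 2% DMSO. Phosphoric acid stop; 33P-labelled substrate captured on phosphocellulose and counted by scintillation.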

Chain of p38 (Q16539 whole entry): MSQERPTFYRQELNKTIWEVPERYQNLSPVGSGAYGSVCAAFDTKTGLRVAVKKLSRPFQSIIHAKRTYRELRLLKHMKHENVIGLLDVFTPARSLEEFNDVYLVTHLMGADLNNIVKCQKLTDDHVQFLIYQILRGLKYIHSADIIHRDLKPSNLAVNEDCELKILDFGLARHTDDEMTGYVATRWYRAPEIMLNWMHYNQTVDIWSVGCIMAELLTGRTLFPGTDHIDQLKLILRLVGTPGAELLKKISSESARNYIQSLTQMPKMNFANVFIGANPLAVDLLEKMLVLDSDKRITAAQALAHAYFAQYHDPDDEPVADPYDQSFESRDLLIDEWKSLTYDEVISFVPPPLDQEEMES

SMILES	pIC50
Cc1ccc(NC(=O)Nc2sc(C(C)(C)C)cc2C(=O)N2CCNC(=O)C2(C)C)cc1-c1ccc(N2CCN(C)CC2)nc1 [1-(5-tert-butyl-3-(2,2-dimethyl-3-oxopiperazine-1-carbonyl)thiophen-2-yl)-3-(4-methyl-3-(6-(4-methylpiperazin-1-yl)pyridin-3-yl)phenyl)urea]	> 7.00
Cc1ccc(NC(=O)Nc2sc(C(C)(C)C)cc2C(=O)N2CCNC(=O)C2(C)C)cc1-c1ccc(CN2CCOCC2)nc1 [1-(5-tert-butyl-3-(2,2-dimethyl-3-oxopiperazine-1-carbonyl)thiophen-2-yl)-3-(4-methyl-3-(6-(morpholinomethyl)pyridin-3-yl)phenyl)urea]	> 7.00
Cc1ccc(NC(=O)Nc2sc(C(C)(C)C)cc2C(=O)N2CCNC(=O)C2(C)C)cc1-c1ccc(N2CCCCC2)nc1 [1-(5-tert-butyl-3-(2,2-dimethyl-3-oxopiperazine-1-carbonyl)thiophen-2-yl)-3-(4-methyl-3-(6-(piperidin-1-yl)pyridin-3-yl)phenyl)urea]	> 7.00
Cc1ccc(NC(=O)Nc2sc(C(C)(C)C)cc2C(=O)N2CCNC(=O)C2(C)C)cc1-c1ccc(OC2CCOCC2)nc1 [1-(5-tert-butyl-3-(2,2-dimethyl-3-oxopiperazine-1-carbonyl)thiophen-2-yl)-3-(4-methyl-3-(6-(tetrahydro-2H-pyran-4-yloxy)pyridin-3-yl)phenyl)urea]	> 7.00
Cc1ccc(-c2cc(NC(=O)Nc3sc(C(C)(C)C)cc3C(=O)N3CCNC(=O)C3(C)C)ccc2C)nn1 [1-(5-tert-butyl-3-(2,2-dimethyl-3-oxopiperazine-1-carbonyl)thiophen-2-yl)-3-(4-methyl-3-(6-methylpyridazin-3-yl)phenyl)urea]	> 7.00
Cc1ccc(NC(=O)Nc2sc(C(C)(C)C)cc2C(=O)N2CCNC(=O)C2(C)C)cc1-c1ccc(N2CCOCC2)nc1 [1-(5-tert-butyl-3-(2,2-dimethyl-3-oxopiperazine-1-carbonyl)thiophen-2-yl)-3-(4-methyl-3-(6-morpholinopyridin-3-yl)phenyl)urea]	> 7.00
Cc1ccc(NC(=O)Nc2sc(C(C)(C)C)cc2C(=O)N2CCNC(=O)C2(C)C)cc1-c1ccccn1 [1-(5-tert-butyl-3-(2,2-dimethyl-3-oxopiperazine-1-carbonyl)thiophen-2-yl)-3-(4-methyl-3-(pyridin-2-yl)phenyl)urea]	> 7.00
Cc1ccc(NC(=O)Nc2sc(C(C)(C)C)cc2C(=O)N2CCNC(=O)C2(C)C)cc1C#Cc1ccccn1 [1-(5-tert-butyl-3-(2,2-dimethyl-3-oxopiperazine-1-carbonyl)thiophen-2-yl)-3-(4-methyl-3-(pyridin-2-ylethynyl)phenyl)urea]	> 7.00
Cc1ccc(NC(=O)Nc2sc(C(C)(C)C)cc2C(=O)N2CCNC(=O)C2(C)C)cc1-c1cccnc1 [1-(5-tert-butyl-3-(2,2-dimethyl-3-oxopiperazine-1-carbonyl)thiophen-2-yl)-3-(4-methyl-3-(pyridin-3-yl)phenyl)urea]	> 7.00
Cc1ccc(NC(=O)Nc2sc(C(C)(C)C)cc2C(=O)N2CCNC(=O)C2(C)C)cc1-c1ccncc1 [1-(5-tert-butyl-3-(2,2-dimethyl-3-oxopiperazine-1-carbonyl)thiophen-2-yl)-3-(4-methyl-3-(pyridin-4-yl)phenyl)urea]	> 7.00
Cc1ccc(NC(=O)Nc2sc(C(C)(C)C)cc2C(=O)N2CCNC(=O)C2(C)C)cc1-c1ncccn1 [1-(5-tert-butyl-3-(2,2-dimethyl-3-oxopiperazine-1-carbonyl)thiophen-2-yl)-3-(4-methyl-3-(pyrimidin-2-yl)phenyl)urea]	> 7.00
COc1ccc(-c2ccc(C)c(NC(=O)Nc3sc(C(C)(C)C)cc3C(=O)N3CCNC(=O)C3(C)C)c2)cn1 [1-(5-tert-butyl-3-(2,2-dimethyl-3-oxopiperazine-1-carbonyl)thiophen-2-yl)-3-(5-(6-methoxypyridin-3-yl)-2-methylphenyl)urea]	> 7.00
Cc1nnc(CN2CCN(C(=O)c3cc(C(C)(C)C)sc3NC(=O)Nc3ccc(C)c(-c4ccncc4)c3)C(C)(C)C2=O)o1 [1-(5-tert-butyl-3-(3,3-dimethyl-1-((5-methyl-1,3,4-oxadiazol-2-yl)methyl)-2-oxopiperazine-4-carbonyl)thiophen-2-yl)-3-(4-methyl-3-(pyridin-4-yl)phenyl)urea]	> 7.00
Cc1ccc(NC(=O)Nc2sc(C(C)(C)C)cc2C(=O)N2CCN(C(=O)CN(C)C)CC2)cc1-c1cccnc1 [1-(5-tert-butyl-3-(4-(2-(dimethylamino)ethanoyl)piperazine-1-carbonyl)thiophen-2-yl)-3-(4-methyl-3-(pyridin-3-yl)phenyl)urea]	> 6.00
CCc1ccc(-c2cc(NC(=O)Nc3sc(C(C)(C)C)cc3C(=O)N3CCN(CCN(C)C)C(=O)C3(C)C)ccc2C)cn1 [1-(5-tert-butyl-3-(4-(2-(dimethylamino)ethyl)-2,2-dimethyl-3-oxopiperazine-1-carbonyl)thiophen-2-yl)-3-(3-(6-ethylpyridin-3-yl)-4-methylphenyl)urea]	> 6.00

More lines, now with the values ahead:

pIC50	SMILES
> 7.00	Cc1ccc(NC(=O)Nc2sc(C(C)(C)C)cc2C(=O)N2CCNC(=O)C2(C)C)cc1C#CCOCCN1CCOCC1 [1-(5-tert-butyl-3-(2,2-dimethyl-3-oxopiperazine-1-carbonyl)thiophen-2-yl)-3-(4-methyl-3-(3-(2-morpholinoethoxy)prop-1-ynyl)phenyl)urea]
> 7.00	Cc1ccc(NC(=O)Nc2sc(C(C)(C)C)cc2C(=O)N2CCNC(=O)C2(C)C)cc1C#CCN1CCN(C)CC1 [1-(5-tert-butyl-3-(2,2-dimethyl-3-oxopiperazine-1-carbonyl)thiophen-2-yl)-3-(4-methyl-3-(3-(4-methylpiperazin-1-yl)prop-1-ynyl)phenyl)urea]
> 7.00	Cc1ccc(NC(=O)Nc2sc(C(C)(C)C)cc2C(=O)N2CCNC(=O)C2(C)C)cc1C#CCOC1CCOCC1 [1-(5-tert-butyl-3-(2,2-dimethyl-3-oxopiperazine-1-carbonyl)thiophen-2-yl)-3-(4-methyl-3-(3-(tetrahydro-2H-pyran-4-yloxy)prop-1-ynyl)phenyl)urea]
> 7.00	Cc1ccc(NC(=O)Nc2sc(C(C)(C)C)cc2C(=O)N2CCNC(=O)C2(C)C)cc1N1C(=O)CN(C)C1=O [1-(5-tert-butyl-3-(2,2-dimethyl-3-oxopiperazine-1-carbonyl)thiophen-2-yl)-3-(4-methyl-3-(3-methyl-2,5-dioxoimidazolidin-1-yl)phenyl)urea]
> 7.00	Cc1ccc(NC(=O)Nc2sc(C(C)(C)C)cc2C(=O)N2CCNC(=O)C2(C)C)cc1C#CCN1CCOCC1 [1-(5-tert-butyl-3-(2,2-dimethyl-3-oxopiperazine-1-carbonyl)thiophen-2-yl)-3-(4-methyl-3-(3-morpholinoprop-1-ynyl)phenyl)urea]
> 7.00	Cc1ccc(NC(=O)Nc2sc(C(C)(C)C)cc2C(=O)N2CCNC(=O)C2(C)C)cc1-c1ccc(N2CCN(C)CC2)cn1 [1-(5-tert-butyl-3-(2,2-dimethyl-3-oxopiperazine-1-carbonyl)thiophen-2-yl)-3-(4-methyl-3-(5-(4-methylpiperazin-1-yl)pyridin-2-yl)phenyl)urea]
> 7.00	Cc1ccc(NC(=O)Nc2sc(C(C)(C)C)cc2C(=O)N2CCNC(=O)C2(C)C)cc1-c1ccc(CN2CCOCC2)cn1 [1-(5-tert-butyl-3-(2,2-dimethyl-3-oxopiperazine-1-carbonyl)thiophen-2-yl)-3-(4-methyl-3-(5-(morpholinomethyl)pyridin-2-yl)phenyl)urea]
> 7.00	Cc1ccc(NC(=O)Nc2sc(C(C)(C)C)cc2C(=O)N2CCNC(=O)C2(C)C)cc1-c1ccc(N2CCOCC2)cn1 [1-(5-tert-butyl-3-(2,2-dimethyl-3-oxopiperazine-1-carbonyl)thiophen-2-yl)-3-(4-methyl-3-(5-morpholinopyridin-2-yl)phenyl)urea]
> 7.00	Cc1ccc(NC(=O)Nc2sc(C(C)(C)C)cc2C(=O)N2CCNC(=O)C2(C)C)cc1-c1ccc(OCCN2CCNCC2)nc1 [1-(5-tert-butyl-3-(2,2-dimethyl-3-oxopiperazine-1-carbonyl)thiophen-2-yl)-3-(4-methyl-3-(6-(2-(piperazin-1-yl)ethoxy)pyridin-3-yl)phenyl)urea]
> 7.00	Cc1ccc(NC(=O)Nc2sc(C(C)(C)C)cc2C(=O)N2CCNC(=O)C2(C)C)cc1-c1ccc(OCCN2CCCCC2)nc1 [1-(5-tert-butyl-3-(2,2-dimethyl-3-oxopiperazine-1-carbonyl)thiophen-2-yl)-3-(4-methyl-3-(6-(2-(piperidin-1-yl)ethoxy)pyridin-3-yl)phenyl)urea]
> 7.00	Cc1ccc(NC(=O)Nc2sc(C(C)(C)C)cc2C(=O)N2CCNC(=O)C2(C)C)cc1-c1ccc(OCCN2CCOCC2)nc1 [1-(5-tert-butyl-3-(2,2-dimethyl-3-oxopiperazine-1-carbonyl)thiophen-2-yl)-3-(4-methyl-3-(6-(2-morpholinoethoxy)pyridin-3-yl)phenyl)urea]
> 7.00	Cc1ccc(NC(=O)Nc2sc(C(C)(C)C)cc2C(=O)N2CCNC(=O)C2(C)C)cc1-c1ccc(OCCCN2CCN(C)CC2)nc1 [1-(5-tert-butyl-3-(2,2-dimethyl-3-oxopiperazine-1-carbonyl)thiophen-2-yl)-3-(4-methyl-3-(6-(3-(4-methylpiperazin-1-yl)propoxy)pyridin-3-yl)phenyl)urea]
> 7.00	Cc1ccc(NC(=O)Nc2sc(C(C)(C)C)cc2C(=O)N2CCNC(=O)C2(C)C)cc1-c1ccc(OCCCc2ccccn2)nc1 [1-(5-tert-butyl-3-(2,2-dimethyl-3-oxopiperazine-1-carbonyl)thiophen-2-yl)-3-(4-methyl-3-(6-(3-(pyridin-2-yl)propoxy)pyridin-3-yl)phenyl)urea]
> 7.00	Cc1ccc(NC(=O)Nc2sc(C(C)(C)C)cc2C(=O)N2CCNC(=O)C2(C)C)cc1-c1ccc(OCCCN2CCOCC2)nc1 [1-(5-tert-butyl-3-(2,2-dimethyl-3-oxopiperazine-1-carbonyl)thiophen-2-yl)-3-(4-methyl-3-(6-(3-morpholinopropoxy)pyridin-3-yl)phenyl)urea]
